# Laboratory results from patent US20170275270A1, “BENZYL SUBSTITUTED INDAZOLES” (Bayer Pharma Aktiengesellschaft, priority 2014, published 2017).
# Where a name gives a salt, the structure may show the parent alone. Read-outs that look alike come from different tables or passages of the source.
# Target: T1, catalytic domain of human Bub1 (amino acids 704-1085) (Homo sapiens, UniProt O43683)
# T1 construct: catalytic domain of human Bub1 (amino acids 704-1085); His6 (N); made in house; host or cells: Hi5 insect cells
# Assay: Bub1 kinase assay (TR-FRET)
# Format: biochemical
# Protocol: To this end, 100-fold concentrated compound solutions (in DMSO) were previously prepared by serial dilution (1:3.4) of 2 mM stocks in a clear low volume 384-well source microtiter plate (Greiner Bio-One, Frickenhausen, Germany), from which 50 nL of compounds were transferred into a black low volume test microtiter plate from the same supplier. […] The resulting mixture (5 μL final volume) was incubated at 22° C. during 60 min., and the reaction was stopped by the addition of 5 μL of an aqueous EDTA-solution (50 mM EDTA, in 100 mM HEPES pH 7.5 and 0.2% (w/v) bovine serum albumin) which also contained the TR-FRET detection reagents (0.2 μM streptavidin-XL665 [Cisbio Bioassays, Codolet, France] and 1 nM anti-phosho-Serine antibody [Merck Millipore, cat. #35-001] and 0.4 nM LANCE EU-W1024 labeled anti-mouse IgG antibody [Perkin-Elmer, product no. AD0077, alternatively a Terbium-cryptate-labeled anti-mouse IgG antibody from Cisbio Bioassays can be used]). The stopped reaction mixture was further incubated 1 h at 22° C. in order to allow the formation of complexes between peptides and detection reagents. Subsequently, the amount of product was evaluated by measurement of the resonance energy transfer from the Eu-chelate-antibody complex recognizing the Phosphoserine residue to the streptavidin-XL665 bound to the biotin moiety of the peptide. […] IC50 values were calculated by fitting the normalized inhibition data to a 4-parameter logistic equation (Minimum, Maximum, IC50, Hill; Y=Max+(Min−Max)/(1+(X/IC50) Hill)).
# [1] = Biological Assay 1: Bub1 kinase assay median IC50, 10 μM ATP
# [2] = 10 μM ATP, read-out: Biological Assay 1: Bub1 kinase assay median IC50
# T1 sequence (O43683 704-1085): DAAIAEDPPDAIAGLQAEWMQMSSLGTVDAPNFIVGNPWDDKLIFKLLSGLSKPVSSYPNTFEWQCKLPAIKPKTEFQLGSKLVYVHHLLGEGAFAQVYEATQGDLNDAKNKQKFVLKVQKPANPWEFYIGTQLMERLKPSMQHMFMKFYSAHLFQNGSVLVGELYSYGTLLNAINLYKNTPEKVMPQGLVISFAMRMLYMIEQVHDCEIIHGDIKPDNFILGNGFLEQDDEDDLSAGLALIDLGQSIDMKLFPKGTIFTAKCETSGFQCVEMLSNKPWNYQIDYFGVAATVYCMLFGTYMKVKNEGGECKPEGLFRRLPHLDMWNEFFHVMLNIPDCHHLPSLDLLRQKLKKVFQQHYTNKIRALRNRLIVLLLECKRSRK
Structure (SMILES),IC50 [1] [nM],IC50 [2] [nM]
"CCOc1cc(F)c(Cn2nc(-c3nc4c(c(Nc5ccnc(C(F)F)c5)n3)CS(=O)(=O)C4)c3ccccc32)c(F)c1 [Example 2-19-14, N-[2-(difluoromethyl)pyridin-4-yl]-2-[1-(4-ethoxy-2,6-difluorobenzyl)-1H-indazol-3-yl]-5,7-dihydrothieno[3,4-d]pyrimidin-4-amine 6,6-dioxide]",460,–
"COCCOc1cc(F)c(Cn2nc(-c3nc(Nc4ccnc(C)n4)cc(C(C)C)n3)c3ccccc32)c(F)c1 [Example 2-12-72, 2-{1-[2,6-difluoro-4-(2-methoxyethoxy)benzyl]-1H-indazol-3-yl}-6-isopropyl-N-(2-methylpyrimidin-4-yl)pyrimidin-4-amine]",670,–
"COCCOc1cc(F)c(Cn2nc(-c3nc(C)c(C)c(Nc4ccncc4OC)n3)c3ccccc32)c(F)c1 [Example 2-12-76, 2-{1-[2,6-difluoro-4-(2-methoxyethoxy)benzyl]-1H-indazol-3-yl}-N-(3-methoxypyridin-4-yl)-5,6-dimethylpyrimidin-4-amine]",–,6.2
"COCCOc1cc(F)c(Cn2nc(-c3nc4c(c(Nc5ccnc(C)n5)n3)CN(CC(F)(F)F)C4)c3ccccc32)c(F)c1 [Example 2-20-16, 2-{1-[2,6-difluoro-4-(2-methoxyethoxy)benzyl]-1H-indazol-3-yl}-N-(2-methylpyrimidin-4-yl)-6-(2,2,2-trifluoroethyl)-6,7-dihydro-5H-pyrrolo[3,4-d]pyrimidin-4-amine]",120,–
"COCCOc1cc(F)c(Cn2nc(-c3nc4c(c(Nc5ccncc5OC)n3)CCC(C)(C)C4)c3ccccc32)c(F)c1 [Example 2-15-11, 2-{1-[2,6-difluoro-4-(2-methoxyethoxy)benzyl]-1H-indazol-3-yl}-N-(3-methoxypyridin-4-yl)-7,7-dimethyl-5,6,7,8-tetrahydroquinazolin-4-amine]",1700,–
"COCCOc1cc(F)c(Cn2nc(-c3nc(C)cc(Nc4ccncc4OC(F)(F)F)n3)c3ccccc32)c(F)c1 [Example 2-12-78, 2-{1-[2,6-difluoro-4-(2-methoxyethoxy)benzyl]-1H-indazol-3-yl}-6-methyl-N-[3-(trifluoromethoxy)pyr-idin-4-yl]pyrimidin-4-amine]",–,12
"CCOc1cc(F)c(Cn2nc(-c3ncc(CCN)c(Nc4ccnc(C)c4)n3)c3ccccc32)c(F)c1 [Example 2-9-12, 5-(2-aminoethyl)-2-[1-(4-ethoxy-2,6-difluorobenzyl)-1H-indazol-3-yl]-N-(2-methylpyridin-4-yl)pyrimidin-4-amine, salt with hydrochloric acid]",–,4.3
"CS(=O)(=O)Cc1cnc(-c2nn(Cc3c(F)cc(OCCO)cc3F)c3ccccc23)nc1N(CCO)c1ccncc1 [Example 2-4-4, 2-[(2-{1-[2,6-difluoro-4-(2-hydroxyethoxy)benzyl]-1H-indazol-3-yl}-5-[(methylsulfonyl)methyl]pyrimidin-4-yl)(pyridin-4-yl)amino]ethanol]",480,–
"CCOc1cc(F)c(Cn2nc(-c3nc(Nc4ccncn4)cc(-c4sc(C)nc4C)n3)c3ccccc32)c(F)c1 [Example 2-12-85, 6-(2,4-dimethyl-1,3-thiazol-5-yl)-2-[1-(4-ethoxy-2,6-difluorobenzyl)-1H-indazol-3-yl]-N-(pyrimidin-4-yl)pyrimidin-4-amine]",6000,–
"COCCOc1cc(F)c(Cn2nc(-c3nc4c(c(Nc5cc(C)ncc5C)n3)CNC4)c3ccccc32)c(F)c1 [Example 2-9-26, 2-{1-[2,6-difluoro-4-(2-methoxy-ethoxy)benzyl]-1H-indazol-3-yl}-N-(2,5-dimethylpyridin-4-yl)-6,7-dihydro-5H-pyrrolo[3,4-d]pyr-imidin-4-amine]",180,–
"COCCOc1cc(F)c(Cn2nc(-c3ncc(C4CCN(CCC(F)(F)F)CC4)c(Nc4ccncc4Cl)n3)c3ccccc32)c(F)c1 [Example 2-20-9, N-(3-chloropyridin-4-yl)-2-{1-[2,6-difluoro-4-(2-methoxyethoxy)benzyl]-1H-indazol-3-yl}-5-[1-(3,3,3-trifluoropropyl)piperidin-4-yl]pyrimidin-4-amine]",220,–

# Other lines, results leading:
IC50 [1] [nM],IC50 [2] [nM],Structure (SMILES)
14,–,"CCOc1cc(F)c(Cn2nc(-c3ncc(CC4OCCO4)c(Nc4ccncc4)n3)c3ccccc32)c(F)c1 [Example 2-2-15, 5-(1,3-dioxolan-2-ylmethyl)-2-[1-(4-ethoxy-2,6-difluorobenzyl)-1H-indazol-3-yl]-N-(pyridin-4-yl)pyrimidin-4-amine]"
55,–,"COc1ccc(Cn2nc(-c3nc(C)c(F)c(Nc4ccncc4)n3)c3ccccc32)cc1 [Example 2-12-24, 5-fluoro-2-[1-(4-methoxybenzyl)-1H-indazol-3-yl]-6-methyl-N-(pyridin-4-yl)-pyrimidin-4-amine]"
12,–,"CCOc1cc(F)c(Cn2nc(-c3nc4c(c(Nc5ccncc5)n3)CCCC4)c3ccccc32)c(F)c1 [Example 2-19-21, 2-[1-(4-ethoxy-2,6-difluorobenzyl)-1H-indazol-3-yl]-N-(pyridin-4-yl)-5,6,7,8-tetrahydroquinazolin-4-amine]"
16,–,"CCOc1cc(F)c(Cn2nc(-c3nc(C)c(CC)c(Nc4ccncc4)n3)c3ccccc32)c(F)c1 [Example 2-12-8, 2-[1-(4-ethoxy-2,6-difluorobenzyl)-1H-indazol-3-yl]-5-ethyl-6-methyl-N-(pyridin-4-yl)pyrimidin-4-amine]"
17,–,"COCCOc1cc(F)c(Cn2nc(-c3nc(CN4CCOCC4)cc(Nc4ccncn4)n3)c3ccccc32)c(F)c1 [Example 2-12-37, 2-{1-[2,6-difluoro-4-(2-methoxyethoxy)benzyl]-1H-indazol-3-yl}-6-(morpholin-4-ylmethyl)-N-(pyrimidin-4-yl)pyrimidin-4-amine]"
10,–,"CCOc1cc(F)c(Cn2nc(-c3ncc(CNC=O)c(Nc4ccncc4)n3)c3ccccc32)c(F)c1 [Example 2-2-8, N-({2-[1-(4-ethoxy-2,6-difluorobenzyl)-1H-indazol-3-yl]-4-(pyridin-4-ylamino)pyrimidin-5-yl}methyl)formamide]"
9.7,–,"Nc1cc(Nc2nc(-c3nn(Cc4c(F)cc(OCCO)cc4F)c4ccccc34)nc3c2CCC3)ccn1 [Example 2-4-7, 2-{4-[(3-{4-[(2-aminopyridin-4-yl)amino]-6,7-dihydro-5H-cyclopenta[d]pyrimidin-2-yl}-1H-indazol-1-yl)methyl]-3,5-difluorophenoxy}ethanol]"
57,–,"COCCOc1cc(F)c(Cn2nc(-c3nc(CN4CCOCC4)cc(Nc4ccnc(C(F)F)c4)n3)c3ccccc32)c(F)c1 [Example 2-12-36, 2-{1-[2,6-difluoro-4-(2-methoxyethoxy)benzyl]-1H-indazol-3-yl}-N-[2-(difluoromethyl)pyridin-4-yl]-6-(morpholin-4-ylmethyl)pyrimidin-4-amine]"
11,–,"CCOc1cc(F)c(Cn2nc(-c3ncc(CCSC)c(Nc4ccncc4)n3)c3ccccc32)c(F)c1 [Example 2-2-1, 2-[1-(4-ethoxy-2,6-difluorobenzyl)-1H-indazol-3-yl]-5-[2-(methylsulfanyl)ethyl]-N-(pyridin-4-yl)pyrimidin-4-amine]"
6.3,–,"COCCOc1cc(F)c(Cn2nc(-c3ncc(C4CCNCC4)c(Nc4ccnc(NC(C)=O)c4)n3)c3ccccc32)c(F)c1 [Example 2-17-8, N-(4-{[2-{1-[2,6-difluoro-4-(2-methoxyethoxy)benzyl]-1H-indazol-3-yl}-5-(piperidin-4-yl)pyrimidin-4-yl]amino}pyridin-2-yl)acetamide]"
85,–,"COCCOc1cc(F)c(Cn2nc(-c3ncc(C4CCNCC4)c(Nc4ccnc(C)n4)n3)c3ccccc32)c(F)c1 [Example 2-17-10, 2-{1-[2,6-difluoro-4-(2-methoxyethoxy)benzyl]-1H-indazol-3-yl}-N-(2-methylpyrimidin-4-yl)-5-(piperidin-4-yl)pyrimidin-4-amine]"
8.4,–,"CCOc1cc(F)c(Cn2nc(-c3nc(C)cc(Nc4ccncc4)n3)c3ccccc32)c(F)c1 [Example 2-12-1, 2-[1-(4-ethoxy-2,6-difluorobenzyl)-1H-indazol-3-yl]-6-methyl-N-(pyridin-4-yl)pyrimidin-4-amine]"
84,–,"Cc1cc(Nc2nc(-c3nn(Cc4c(F)cc(OCCO)cc4F)c4ccccc34)nc3c2CCC(C)(C)C3)c(C)cn1 [Example 2-6-43, 2-{4-[(3-{4-[(2,5-dimethylpyridin-4-yl)amino]-7,7-dimethyl-5,6,7,8-tetrahydroquin-azolin-2-yl}-1H-indazol-1-yl)methyl]-3,5-difluorophenoxy} ethanol]"
68,–,"CCOc1cc(F)c(Cn2nc(-c3nc4c(c(Nc5ccncc5)n3)CCN(Cc3ccccc3)C4)c3ccccc32)c(F)c1 [Example 2-12-15, 7-Benzyl-2-[1-(4-ethoxy-2,6-difluorobenzyl)-1H-indazol-3-yl]-N-(pyridin-4-yl)-5,6,7,8-tetrahydropyrido[3,4-d]pyrimidin-4-amine]"
8.9,–,"CCOc1cc(F)c(Cn2nc(-c3ncc(CS(C)(=O)=O)c(Nc4ccncc4)n3)c3ccccc32)c(F)c1 [Example 2-3-3, 2-[1-(4-ethoxy-2,6-difluorobenzyl)-1H-indazol-3-yl]-5-[(methylsulfonyl)methyl]-N-(pyridin-4-yl)pyrimidin-4-amine]"
